# From the RepoRT retention time repository
# Assay: HILIC, Waters ACQUITY UPLC BEH Amide, 100 × 2.1 mm, 1.7 µm; A: water + 0.125% formic acid + 10 mM ammonium formate; B: 5% water + 95% acetonitrile + 0.125% formic acid + 10 mM ammonium formate; gradient (min/%B) 0/100 2/100 7.7/70 9.5/40 10.25/30 12.75/100 17/100
# Conditions: stereoisomer not certain
row,SMILES,LC retention time
1,NCCO [Ethanolamine],7.15 min
2,C#CC1(O)CCC2C3CCc4cc(O)ccc4C3CCC21C (stereo not given) [Ethynylestradiol],0.99 min
3,CCOC(=O)c1cncn1C(C)c1ccccc1 (stereo not given) [Etomidate],0.98 min
4,COc1cc(C2c3cc4c(cc3C(OC3OC5COC(C)OC5C(O)C3O)C3COC(=O)C23)OCO4)cc(OC)c1O (stereo not given) [Etoposide],1.3 min
5,C=C1CC2C(CCC3(C)C(=O)CCC23)C2(C)C=CC(=O)C=C12 (stereo not given) [Exemestane],0.98 min
6,O=C1C(CCC(O)c2ccc(F)cc2)C(c2ccc(O)cc2)N1c1ccc(F)cc1 (stereo not given) [Ezetimibe],1.03 min
7,CC(=O)OCC(CCn1cnc2cnc(N)nc21)COC(C)=O [Famciclovir],1.38 min
8,NC(N)=Nc1nc(CSCCC(N)=NS(N)(=O)=O)cs1 [Famotidine],5.59 min
9,CCNC(C)Cc1cccc(C(F)(F)F)c1 (stereo not given) [Fenfluramine],2.33 min
10,Oc1ccc(C2CNCCc3c2cc(O)c(O)c3Cl)cc1 (stereo not given) [Fenoldopam],5.68 min
11,CCOC(=O)C(C)Oc1ccc(Oc2nc3ccc(Cl)cc3o2)cc1 (stereo not given) [Fenoxaprop-P-ethyl],1.01 min
12,CCOC(=O)c1ncn2c1CN(C)C(=O)c1cc(F)ccc1-2 [Flumazenil],1.08 min
13,CN1C(=O)CN=C(c2ccccc2F)c2cc([N+](=O)[O-])ccc21 [Flunitrazepam],1.05 min
14,c1ccc2c(c1)Cc1ccccc1-2 [Fluorene],6.66 min
15,CN1CCN(C2=Nc3cc(F)ccc3Cc3ccccc32)CC1 [Fluperlapine],2.3 min
16,CCN(CC)CCN1C(=O)CN=C(c2ccccc2F)c2cc(Cl)ccc21 [Flurazepam],2.41 min
17,COCCCCC(=NOCCN)c1ccc(C(F)(F)F)cc1 [Fluvoxamine],2.93 min
18,NC1C(O)OC(CO)C(O)C1O (stereo not given) [Galactosamine],8.44 min
19,COC(=O)C1=COC(OC2OC(CO)C(O)C(O)C2O)C2C(CO)=CCC12 (stereo not given) [Geniposide],4.53 min
20,O=C(O)c1cc(O)ccc1O [Gentisinic acid],3.18 min
21,CC(C)=CCCC(C)=CC(=O)O [Geranic acid],1.3 min

row,SMILES,LC retention time
1,NC(=O)CCC(NC(=O)C(N)CCC(=O)O)C(=O)O (stereo not given) [Glu-Gln],9.6 min
2,NCCCCC(NC(=O)C(N)CCC(=O)O)C(=O)O (stereo not given) [Glu-Lys],9.9 min
3,NC(CCC(=O)O)C(=O)NC(Cc1ccccc1)C(=O)O (stereo not given) [Glu-Phe],8.2 min
4,O=C1OC(CO)C(O)C(O)C1O (stereo not given) [Gluconolactone],8.15 min
5,CS(=O)CCCCC(=NOS(=O)(=O)O)SC1OC(CO)C(O)C(O)C1O (stereo not given) [Glucoraphanin],7.37 min
6,O=P(O)(O)OC1OC(CO)C(O)C(O)C1O (stereo not given) [Glucose-1-phosphate],9.61 min
7,O=P(O)(O)OCC1OC(O)C(O)C(O)C1O (stereo not given) [Glucose-6-phosphate],9.86 min
8,O=CC(O)C(O)C(O)C(O)CO (stereo not given) [Glucose],1.84 min
9,NC(CCC(=O)O)C(=O)O (stereo not given) [Glutamic acid],8.85 min
10,NC(CCC(=O)NC(CSSCC(NC(=O)CCC(N)C(=O)O)C(=O)NCC(=O)O)C(=O)NCC(=O)O)C(=O)O (stereo not given) [Glutathione (oxidized)],10.2 min
11,NC(CCC(=O)NC(CS)C(=O)NCC(=O)O)C(=O)O (stereo not given) [Glutathione (reduced)],9.07 min
12,CCC(C)C(NC(=O)CN)C(=O)O (stereo not given) [Gly-Ile],7.67 min
13,NCC(=O)N1CCCC1C(=O)O (stereo not given) [Gly-Pro],8.62 min
14,CC(NC(=O)C(Cc1ccc(O)cc1)NC(=O)CN)C(=O)O (stereo not drawn) [Gly-Tyr-Ala],7.89 min
15,CC(C)C(NC(=O)CN)C(=O)O (stereo not given) [Gly-val],8.05 min
16,C[N+](C)(C)CCOP(=O)([O-])OCC(O)CO (stereo not given) [Glycerophosphocholine],8.67 min
17,NCC(=O)O [Glycine],8.33 min
18,COc1cc2c(=O)c(-c3ccc(O)cc3)coc2cc1O [Glycitein],1.32 min
19,CC(C)CC(NC(=O)C(COC(C)(C)C)NC(=O)C(Cc1ccc(O)cc1)NC(=O)C(CO)NC(=O)C(Cc1c[nH]c2ccccc12)NC(=O)C(Cc1cnc[nH]1)NC(=O)C1CCC(=O)N1)C(=O)NC(CCCN=C(N)N)C(=O)N1CCCC1C(=O)NNC(N)=O (stereo not given) [Goserelin],7.83 min
20,NC(N)=NCC(=O)O [Guanidinoacetic acid],8.16 min
21,Nc1nc2nc[nH]c2c(=O)[nH]1 [Guanine],6.4 min

row,SMILES,LC retention time
1,"Nc1nc2c(ncn2C2OC3COP(=O)(O)OC3C2O)c(=O)[nH]1 (stereo not given) [Guanosine-3',5'-cyclic monophosphate]",8.39 min
2,Nc1nc2c(ncn2C2OC(CO)C(O)C2O)c(=O)[nH]1 (stereo not given) [Guanosine],7.33 min
3,O=C(CCCN1CCC(O)(c2ccc(Cl)cc2)CC1)c1ccc(F)cc1 [Haloperidol],2.31 min
4,CCCCCCCCCCCCCCCCC(=O)O [Heptadecanoic acid],3.01 min
5,CCCCCC(=O)O [Hexanoic acid],4.89 min
6,CCCCCC(=O)OC(CC(=O)[O-])C[N+](C)(C)C [Hexanoyl-L-carnitine],5.09 min
7,NCCc1cnc[nH]1 [Histamine],8.29 min
8,NC(Cc1cnc[nH]1)C(=O)O (stereo not given) [Histidine],9.48 min
9,NC(N)=NCCCCC(N)C(=O)O (stereo not given) [Homoarginine],9.34 min
10,NC(CCS)C(=O)O (stereo not given) [Homocysteine],9.58 min
11,NC(CCSSCCC(N)C(=O)O)C(=O)O (stereo not given) [Homocystine],9.58 min
12,COc1ccc(CCN)cc1OC [Homoveratrylamine],4.78 min
13,O=C(O)CCc1ccccc1 [Hydrocinnamic acid],8.71 min
14,COc1ccc2c3c1OC1C(=O)CCC4C(C2)N(C)CCC314 (stereo not given) [Hydrocodone],3.8 min
15,CC12CCC(=O)C=C1CCC1C2C(O)CC2(C)C1CCC2(O)C(=O)CO (stereo not given) [Hydrocortisone],2.56 min
16,CN1CCC23c4c5ccc(O)c4OC2C(=O)CCC3C1C5 (stereo not given) [Hydromorphone],5.22 min
17,O=C(O)C1CC(O)CN1 (stereo not given) [Hydroxyproline],8.14 min
18,O=c1[nH]cnc2nc[nH]c12 [Hypoxanthine],4.99 min
19,COc1ccc(-c2oc3c(CC=C(C)C)c(OC4OC(CO)C(O)C(O)C4O)cc(O)c3c(=O)c2OC2OC(C)C(O)C(O)C2O)cc1 (stereo not given) [Icarin],4.74 min
20,COC1=C(OC)C(=O)C(CCCCCCCCCCO)=C(C)C1=O [Idebenone],0.96 min

# Further lines, results first:
row,LC retention time,SMILES
1,1.35 min,COc1ccc2nc(S(=O)Cc3ncc(C)c(OC)c3C)[nH]c2c1 (stereo not given) [Esomeprazole]
2,4.88 min,CCCC(=O)OCC [Ethylbutanoate]
3,1.2 min,NC(=O)OCC(COC(N)=O)c1ccccc1 [Felbamate]
4,1.36 min,COc1cc(/C=C/C(=O)O)ccc1O [Ferulic acid]
5,1.17 min,CC(C)(C)NC(=O)C1CCC2C3CCC4NC(=O)C=CC4(C)C3CCC12C (stereo not given) [Finasteride]
6,1.16 min,COC(=O)Nc1nc2ccc(C(=O)c3ccc(F)cc3)cc2[nH]1 [Flubendazole]
7,2.74 min,OCCN1CCN(CCCN2c3ccccc3Sc3ccc(C(F)(F)F)cc32)CC1 [Fluphenazine]
8,7.92 min,Nc1nc2c(c(=O)[nH]1)N(C=O)C(CNc1ccc(C(=O)NC(CCC(=O)O)C(=O)O)cc1)CN2 (stereo not given) [Folinic acid]
9,1.18 min,COc1ccc(-c2coc3cc(O)ccc3c2=O)cc1 [Formononetine]
10,5.18 min,COc1ccc(CC(C)NCC(O)c2ccc(O)c(NC=O)c2)cc1 (stereo not given) [Formoterol]
11,1.07 min,CC(=O)OC1CC(C)(C)C(=C=CC(C)=CC=CC(C)=CC=CC=C(C)C=CC=C(C)C(=O)CC23OC2(C)CC(O)CC3(C)C)C(C)(O)C1 (stereo not given) [Fucoxanthin]
12,3.45 min,CCOC(=O)c1ccc(OC(=O)CCCCCN=C(N)N)cc1 [Gabexate]
13,4.62 min,COc1ccc2c3c1OC1CC(O)C=CC31CCN(C)C2 (stereo not given) [Galanthamine]
14,1.05 min,CCC1=C(C)CN(C(=O)NCCc2ccc(S(=O)(=O)NC(=O)NC3CCC(C)CC3)cc2)C1=O (stereo not given) [Glimepiride]
15,9.9 min,NC(N)=NCCCC(NC(=O)C(N)CCC(=O)O)C(=O)O (stereo not given) [Glu-Arg]
16,9.44 min,CC(O)C(NC(=O)C(N)CCC(=O)O)C(=O)O (stereo not given) [Glu-Thr]
17,7.66 min,CC(C)C(NC(=O)C(N)CCC(=O)O)C(=O)NC(Cc1ccccc1)C(=O)O (stereo not drawn) [Glu-Val-Phe]
18,10.1 min,NC1C(O)OC(COP(=O)(O)O)C(O)C1O (stereo not given) [Glucosamine-6-phosphate]
19,9.18 min,NCC(=O)NCC(=O)NCC(=O)O [Gly-Gly-Gly]
20,8.07 min,NCC(=O)NC(Cc1ccc(O)cc1)C(=O)O (stereo not given) [Gly-Tyr]
21,8.14 min,CC(C)CC(NC(=O)CN)C(=O)O (stereo not given) [Glycyl-leucine]
22,4.12 min,CN1C2CCCC1CC(NC(=O)c1nn(C)c3ccccc13)C2 (stereo not given) [Granisetron]
23,1.12 min,CC1CC2C3CC(F)C4=CC(=O)C(Cl)=CC4(C)C3(F)C(O)CC2(C)C1(O)C(=O)CO (stereo not given) [Halometasone]
24,5.3 min,CC(CCCCC(=O)Nc1ccc(C(F)(F)F)cc1)NCCc1cnc[nH]1 (stereo not given) [Histamine-trifluoromethyltoluide]
25,3.24 min,COC(=O)CC(O)(CCCC(C)(C)O)C(=O)OC1C(OC)=CC23CCCN2CCc2cc4c(cc2C13)OCO4 (stereo not given) [Homoharringtonine]
26,8.29 min,NC(CCO)C(=O)O (stereo not given) [Homoserine]
27,5.74 min,CC=C1C2C=C(C)CC1(N)c1ccc(=O)[nH]c1C2 (stereo not given) [Huperzine]
28,5.42 min,CC(=O)C1(O)Cc2c(O)c3c(c(O)c2C(OC2CC(N)C(O)C(C)O2)C1)C(=O)c1ccccc1C3=O (stereo not given) [Idarubicin]
